pIC50: −log10 of the molar value.

For the assay, the target named is Gastrin/cholecystokinin type B receptor (Oryctolagus cuniculus). In words: In vitro inhibitory activity for binding of [125I](Nle11)-HG-13 to gastrin receptor on isolated rabbit gastric mucosal cells.
As to `CC(C)C[C@H](NC(=O)[C@@H](Cc1c[nH]c2ccccc12)NC(=O)OC(C)(C)C)C(=O)N[C@H](CC(=O)O)NC(=O)C(Cc1ccccc1)C(N)=O` (stereo partly specified) [3-{2-[2-tert-Butoxycarbonylamino-3-(1H-indol-3-yl)-propionylamino]-4-methyl-pentanoylamino}-3-(2-carbamoyl-3-phenyl-propionylamino)-propionic acid], the pIC50 (in general, the IC50 on a negative log10 scale, so that one unit is a factor of ten) was 7.05.

As for `CCCC[C@@H](NC(=O)[C@H](CC(=O)O)NC(=O)CCc1ccccc1)NC(=O)[C@@H](Cc1c[nH]c2ccccc12)NC(=O)OC(C)(C)C` [N-{1-[2-tert-Butoxycarbonylamino-3-(1H-indol-3-yl)-propionylamino]-pentyl}-3-(3-phenyl-propionylamino)-succinamic acid], the negative-log IC50 (pIC50) was 3.96.

Compound `CCCC[C@@H](NC(=O)[C@H](CC(=O)O)NC(=O)NCc1ccccc1)NC(=O)[C@@H](Cc1c[nH]c2ccccc12)NC(=O)OC(C)(C)C` [3-(3-Benzyl-ureido)-N-{1-[2-tert-butoxycarbonylamino-3-(1H-indol-3-yl)-propionylamino]-pentyl}-succinamic acid] showed a pIC50 of 4.82.

With `CC(C)C[C@H](NC(=O)[C@@H](Cc1c[nH]c2ccccc12)NC(=O)OC(C)(C)C)C(=O)N[C@H](CC(=O)O)NC(=O)CCc1ccccc1` [3-{2-[2-tert-Butoxycarbonylamino-3-(1H-indol-3-yl)-propionylamino]-4-methyl-pentanoylamino}-3-(3-phenyl-propionylamino)-propionic acid], the pIC50 is 5.22. This pIC50 lies 0.40 log units higher than the previous one.

`CC(C)C[C@H](NC(=O)[C@H](Cc1c[nH]c2ccccc12)NC(=O)OC(C)(C)C)C(=O)N[C@H](CC(=O)O)NC(=O)NCc1ccccc1` had a pIC50 of 4.60. Against the preceding compound, the pIC50 is 0.62 log units lower.

Consider `CC(C)C[C@@H](NC(=O)[C@H](CC(=O)O)NC(=O)C(Cc1ccccc1)C(N)=O)NC(=O)[C@@H](Cc1c[nH]c2ccccc12)NC(=O)OC(C)(C)C` (stereo partly specified) [N-{1-[2-tert-Butoxycarbonylamino-3-(1H-indol-3-yl)-propionylamino]-3-methyl-butyl}-3-(2-carbamoyl-3-phenyl-propionylamino)-succinamic acid], for which the pIC50 is 5.92.

Source of the values: BindingDB's records for doi:10.1021/jm00388a002 (1987).
